The source of these data is patent US20230183243A1, “HETEROARYL DERIVATIVES AND PHARMACEUTICAL COMPOSITION COMPRISING SAME AS ACTIVE INGREDIENT” (VORONOI INC., priority 2019, published 2023).

For one test, the system named is SHP-77. As to the kind of experiment: Inhibition of proliferation of small cell lung cancer cells, CellTiter-Glo. Type of test: cell-based. The note with it: Homo sapiens, SHP77, 120 h; SHP-77, cultured for 5 days. Summed up: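 SHP-77 cells at 2,000–3,000 cells/well, cultured 24 h at 37° C, 5% CO2, then given 12 threefold compound dilutions, final 10 μM to 0.05 nM, for 5 days. Viability by CellTiter-Glo luminescence relative to solvent control. GI50 from concentration–response.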
In general terms: ATP-based viability assays read luminescence as a measure of living cells.

A further test addresses T1, TTK (Homo sapiens, UniProt P33981).
T1 sequence (P33981 1-857): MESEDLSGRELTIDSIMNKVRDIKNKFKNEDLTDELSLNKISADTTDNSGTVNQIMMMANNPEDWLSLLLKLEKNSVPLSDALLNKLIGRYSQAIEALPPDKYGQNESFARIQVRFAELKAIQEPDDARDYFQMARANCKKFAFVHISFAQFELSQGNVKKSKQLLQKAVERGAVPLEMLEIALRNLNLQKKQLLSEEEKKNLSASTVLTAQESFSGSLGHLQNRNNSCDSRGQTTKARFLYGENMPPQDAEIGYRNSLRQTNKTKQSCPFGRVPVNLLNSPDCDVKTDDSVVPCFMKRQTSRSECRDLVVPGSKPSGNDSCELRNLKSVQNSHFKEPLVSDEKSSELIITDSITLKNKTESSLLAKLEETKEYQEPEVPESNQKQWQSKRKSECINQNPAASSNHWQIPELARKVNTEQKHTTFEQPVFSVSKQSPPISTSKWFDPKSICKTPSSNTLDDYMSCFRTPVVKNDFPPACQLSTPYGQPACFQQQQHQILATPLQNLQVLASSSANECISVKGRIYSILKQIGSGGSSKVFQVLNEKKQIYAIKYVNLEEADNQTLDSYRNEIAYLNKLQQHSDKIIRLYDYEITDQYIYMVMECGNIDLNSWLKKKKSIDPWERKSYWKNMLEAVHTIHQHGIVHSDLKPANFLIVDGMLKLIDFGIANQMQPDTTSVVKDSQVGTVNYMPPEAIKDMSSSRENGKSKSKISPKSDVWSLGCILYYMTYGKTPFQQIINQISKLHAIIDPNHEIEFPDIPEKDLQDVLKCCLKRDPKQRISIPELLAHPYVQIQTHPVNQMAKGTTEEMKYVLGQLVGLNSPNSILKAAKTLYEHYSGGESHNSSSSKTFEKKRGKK
As to the kind of experiment: TTK enzyme activity, ADP-Glo kinase assay. It counts as biochemical. On the set-up: purchased SignalChem T20-10G. Conditions: purified human TTK, ATP 10 μM, 25° C., 2 hours. The method, boiled down:
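ADP-Glo read-out; percent inhibition at each compound concentration was relative to the solvent-only control. The reactions contained 25 ng enzyme, 0.2 μg substrate and 10 μM ATP in 40 mM Tris-HCl pH 7.4 with 20 mM MgCl2, 0.5 mg/mL BSA and 50 μM DTT, and ran 2 h at 25 °C.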
Background: ADP-Glo turns the ADP formed in a reaction into a luminescent signal.

For the next test, the system named is MDA-MB-231 cells. As to the kind of experiment: Inhibition of proliferation of triple-negative breast cancer cells, CellTiter-Glo. The note with it: Homo sapiens, 120 h; MDA-MB-231, cultured for 5 days. Type of test: cell-based. The method, boiled down: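 MDA-MB-231 cells pre-cultured 24 h (5% CO2, 37 °C), then exposed to compound for 5 days at 12 three-fold dilutions, final 10 μM to 0.05 nM. Viability read by CellTiter-Glo luminescence after 10 min at 37 °C; growth inhibition calculated relative to untreated solvent-control cells.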

Usually GI50 stands for the concentration giving 50% growth inhibition. For orientation: IC50 means the point on the concentration scale where inhibition reaches its midpoint. Low readings indicate greater potency in that assay, high ones weaker potency in that assay. As for `COc1cc(-c2cccc(O)c2)ccc1Nc1nc(NC2CCOCC2)c2c(C#N)c[nH]c2n1` [Example 141, 2-((3′-hydroxy-3-methoxy-[1,1′-biphenyl]-4-yl)amino)-4-((tetrahydro-2H-pyran-4-yl)amino)-7H-pyrrolo[2,3-d] pyrimidine-5-carbonitrile], the GI50 in the test on SHP-77 and with MDA-MB-231 cells was less than 100 nM in each case. In addition, the IC50 against TTK was less than 50 nM.
Regarding `C=CC(=O)Nc1cc(-c2ccnn2C)ccc1Nc1nc(NC2CCCC2)c2c(C#N)c[nH]c2n1` [Example 142, N-(2-((5-cyano-4-(cyclopentylamino)-7H-pyrrolo[2,3-d]pyrimidin-2-yl)amino)-5-(1-methyl-1H-pyrazol-5-yl)phenyl)acrylamide], the concentration for 50% growth inhibition (GI50) in the test on SHP-77 and in the test with MDA-MB-231 cells was 100 to 1000 nM each time. The same molecule registered an IC50 at TTK of less than 50 nM.
Turning to `COc1cc(-c2nncn2C)ccc1Nc1nc(NC2CCOC(C)(C)C2)c2c(C#N)c[nH]c2n1` (stereo not drawn) [Example 143, 4-((2,2-dimethyltetrahydro-2H-pyran-4-yl)amino)-2-((2-methoxy-4-(4-methyl-4H-1,2,4-triazol-3-yl)phenyl)amino)-7H-pyrrolo[2,3-d] pyrimidine-5-carbonitrile], the GI50 with SHP-77 and with MDA-MB-231 cells was less than 100 nM in each case. In addition, the IC50 at TTK was less than 50 nM.
Take `COc1cc(-c2cnn(C)c2)ccc1Nc1nc(NC2CCOC(C)(C)C2)c2c(C#N)c[nH]c2n1` (stereo not drawn) [Example 144, 4-((2,2-dimethyltetrahydro-2H-pyran-4-yl)amino)-2-((2-methoxy-4-(1-methyl-1H-pyrazol-4-yl)phenyl)amino)-7H-pyrrolo[2,3-d] pyrimidine-5-carbonitrile]: the GI50 with SHP-77 and in the test with MDA-MB-231 cells was less than 100 nM throughout. For the same molecule, the IC50 against TTK was less than 50 nM.
For `Cn1cc(-c2ccc(Nc3nc(NC4CCOC(C)(C)C4)c4c(C#N)c[nH]c4n3)c3c2OCCO3)cn1` (stereo not drawn) [Example 145, 4-((2,2-dimethyltetrahydro-2H-pyran-4-yl)amino)-2-((8-(1-methyl-1H-pyrazol-4-yl)-2,3-dihydrobenzo[b][1,4]dioxin-5-yl)amino)-7H-pyrrolo[2,3-d] pyrimidine-5-carbonitrile], the 50% growth inhibitory concentration (GI50) with SHP-77 and in the test on MDA-MB-231 cells was less than 100 nM each time. The molecule further gave an IC50 on TTK of less than 50 nM.
For the molecule `COc1cc(-c2c(C)noc2C)ccc1Nc1nc(NC2C[C@H]3CC[C@@H]2C3)c2c(C#N)c[nH]c2n1` (stereo partly drawn) [Example 146, 4-(((1R,4S)-bicyclo[2.2.1]heptan-2-yl)amino)-2-((4-(3,5-dimethylisoxazol-4-yl)-2-methoxyphenyl)amino)-7H-pyrrolo[2,3-d] pyrimidine-5-carbonitrile], the GI50 in the test on SHP-77 and with MDA-MB-231 cells was less than 100 nM throughout. On TTK, the IC50 is less than 50 nM.
`Cn1cc(-c2ccc(Nc3nc(NC4C[C@H]5CC[C@@H]4C5)c4c(C#N)c[nH]c4n3)c3c2OCCO3)cn1` (stereo partly drawn) [Example 147, 4-(((1R,4S)-bicyclo[2.2.1]heptan-2-yl)amino)-2-((8-(1-methyl-1H-pyrazol-4-yl)-2,3-dihydrobenzo[b][1,4]dioxin-5-yl)amino)-7H-pyrrolo[2,3-d] pyrimidine-5-carbonitrile]: the concentration for 50% growth inhibition (GI50) with SHP-77 and in the test with MDA-MB-231 cells was less than 100 nM throughout. Further, on TTK, the IC50 was less than 50 nM.
`N#Cc1c[nH]c2nc(Nc3ccc(N4CCCC4=O)c4c3OCCO4)nc(NC3C[C@H]4CC[C@@H]3C4)c12` (stereo partly drawn) [Example 148, 4-(((1R,4S)-bicyclo[2.2.1]heptan-2-yl)amino)-2-((8-(2-oxopyrrolidin-1-yl)-2,3-dihydrobenzo[b][1,4]dioxin-5-yl)amino)-7H-pyrrolo[2,3-d] pyrimidine-5-carbonitrile]: the GI50 with SHP-77 and in the test with MDA-MB-231 cells was less than 100 nM each time. The concentration for half-maximal inhibition (IC50) against TTK is less than 50 nM.
For the molecule `COc1cc(-c2c(C)noc2C)ccc1Nc1nc(NC2CCCCCC2)c2c(C#N)c[nH]c2n1` [Example 149, 4-(cycloheptylamino)-2-((4-(3,5-dimethylisoxazol-4-yl)-2-methoxyphenyl)amino)-7H-pyrrolo[2,3-d] pyrimidine-5-carbonitrile], the GI50 in the test on SHP-77 and with MDA-MB-231 cells was less than 100 nM in each case. The IC50 on TTK lay in the range of 50 to 200 nM.
Take `Cn1cc(-c2ccc(Nc3nc(NC4CCCCCC4)c4c(C#N)c[nH]c4n3)c3c2OCCO3)cn1` [Example 150, 4-(cycloheptylamino)-2-((8-(1-methyl-1H-pyrazol-4-yl)-2,3-dihydrobenzo[b][1,4]dioxin-5-yl)amino)-7H-pyrrolo[2,3-d] pyrimidine-5-carbonitrile]: the GI50 with SHP-77 and in the test with MDA-MB-231 cells was less than 100 nM in each case. Also, the half-inhibitory concentration (IC50) at TTK lay in the range of 50 to 200 nM.
As for `N#Cc1c[nH]c2nc(Nc3ccc(N4CCCC4=O)c4c3OCCO4)nc(NC3CCCCCC3)c12` [Example 151, 4-(cycloheptylamino)-2-((8-(2-oxopyrrolidin-1-yl)-2,3-dihydrobenzo[b][1,4]dioxin-5-yl)amino)-7H-pyrrolo[2,3-d] pyrimidine-5-carbonitrile], the GI50 with SHP-77 and with MDA-MB-231 cells was less than 100 nM each time. At TTK, this molecule came in with an IC50 of less than 50 nM.
`COc1cc(-c2ccnn2C)ccc1Nc1nc(NC2CCCC(F)(F)C2)c2c(C#N)c[nH]c2n1` (stereo not drawn) [Example 152, 4-((3,3-difluorocyclohexyl)amino)-2-((2-methoxy-4-(1-methyl-1H-pyrazol-5-yl)phenyl)amino)-7H-pyrrolo[2,3-d] pyrimidine-5-carbonitrile]: the 50% growth inhibitory concentration (GI50) with SHP-77 and in the test with MDA-MB-231 cells was less than 100 nM throughout. At TTK, this molecule registered an IC50 of 50 to 200 nM.
For the molecule `Cn1nccc1-c1ccc(Nc2nc(NC3CCCC(F)(F)C3)c3c(C#N)c[nH]c3n2)c2c1OCCO2` (stereo not drawn) [Example 153], the GI50 in the test on SHP-77 and in the test on MDA-MB-231 cells was less than 100 nM throughout. In addition, on TTK, the IC50 fell in the range of 50 to 200 nM.
As to `COc1cc(-c2nncn2C)ccc1Nc1nc(NC2CCCC(F)(F)C2)c2c(C#N)c[nH]c2n1` (stereo not drawn) [Example 154, 4-((3,3-difluorocyclohexyl)amino)-2-((2-methoxy-4-(4-methyl-4H-1,2,4-triazol-3-yl)phenyl)amino)-7H-pyrrolo[2,3-d] pyrimidine-5-carbonitrile], the GI50 with SHP-77 and with MDA-MB-231 cells was less than 100 nM throughout. Also, on TTK, the IC50 was less than 50 nM.
Consider `COc1cc(N2CCCCS2(=O)=O)ccc1Nc1nc(NC2CCCC2)c2c(C#N)c[nH]c2n1` [Example 155, 4-(cyclopentylamino)-2-((4-(1,1-dioxido-1,2-thiazinan-2-yl)-2-methoxyphenyl)amino)-7H-pyrrolo[2,3-d] pyrimidine-5-carbonitrile], for which the GI50 in the test with SHP-77 and with MDA-MB-231 cells was less than 100 nM throughout. Also, on TTK, the IC50 is less than 50 nM.
Turning to `N#Cc1c[nH]c2nc(Nc3ccc(N4CCCCS4(=O)=O)cc3)nc(NC3CCCC3)c12` [Example 156, 4-(cyclopentylamino)-2-((4-(1,1-dioxido-1,2-thiazinan-2-yl)phenyl)amino)-7H-pyrrolo[2,3-d] pyrimidine-5-carbonitrile], the GI50 with SHP-77 and in the test on MDA-MB-231 cells was less than 100 nM in each case. Besides, at TTK, the IC50 was less than 50 nM.
`COc1cc(N2CCCS2(=O)=O)ccc1Nc1nc(NC2CCCC2)c2c(C#N)c[nH]c2n1` [Example 157, 4-(cyclopentylamino)-2-((4-(1,1-dioxidoisothiazolidin-2-yl)-2-methoxyphenyl)amino)-7H-pyrrolo[2,3-d] pyrimidine-5-carbonitrile]: the GI50 in the test with SHP-77 and in the test with MDA-MB-231 cells was less than 100 nM each time. The half-inhibitory concentration (IC50) on TTK was less than 50 nM.
As to `N#Cc1c[nH]c2nc(Nc3ccc(N4CCCS4(=O)=O)cc3)nc(NC3CCCC3)c12` [Example 158, 4-(cyclopentylamino)-2-((4-(1,1-dioxidoisothiazolidin-2-yl)phenyl)amino)-7H-pyrrolo[2,3-d] pyrimidine-5-carbonitrile], the GI50 in the test with SHP-77 and with MDA-MB-231 cells was less than 100 nM each time. In addition, the IC50 against TTK was less than 50 nM.
